According to US9232796B2, “Herbicidal compositions comprising 4-amino-3-chloro-5-fluoro-6-(4-chloro-2-fluoro-3-methoxyphenyl) pyridine-2-carboxylic acid or a derivative thereof and acetyl-CoA carboxylase (ACCase) inhibitors” (DOW AGROSCIENCES LLC, priority 2012, dated 2016):

Assays:
FIMMI = assay: Example II in-water applied, greenhouse, transplanted paddy rice weeds; type: in vivo, Fimbristylis miliacea (L.) Vahl
Method: Weed seeds or nutlets of the desired test plant species were planted in puddled soil (mud) prepared by mixing a shredded, non-sterilized mineral soil (50.5 percent silt, 25.5 percent clay, and 24 percent sand, with a pH of about 7.6 and an organic matter content of about 2.9 percent) and water at a 1:1 volumetric ratio. The prepared mud was dispensed in 365 mL aliquots into 16-ounce (oz.) non-perforated plastic pots with a surface area of 86.59 square centimeters (cm^2) leaving a headspace of 3 centimeters (cm) in each pot. Mud was allowed to dry overnight prior to planting or transplanting. Rice seeds were planted in Sun Gro MetroMix® 306 planting mixture, which typically has a pH of 6.0 to 6.8 and an organic matter content of about 30 percent, in plastic plug trays. Seedlings at the second or third leaf stage of growth were transplanted into 860 mL of mud contained in 32-oz. non-perforated plastic pots with a surface area of 86.59 cm^2 4 days prior to herbicide application. The paddy was created by filling the headspace of the pots with 2.5 to 3 cm of water. […] The plants were grown for 4-22 days in a greenhouse with an approximate 14 hr. photoperiod which was maintained at about 29° C. during the day and 26° C. during the night. Nutrients were added as Osmocote® (19:6:12, N:P:K+minor nutrients) at 2 g per 16-oz. pot and 4 g per 32-oz. pot. Water was added on a regular basis to maintain the paddy flood, and supplemental lighting was provided with overhead metal halide 1000-Watt lamps as necessary. The plants were employed for testing when they reached the first through fourth true leaf stage.
Treatments consisted of the acid or esters of 4-amino-3-chloro-5-fluoro-6-(4-chloro-2-fluoro-3-methoxy-phenyl)pyridine-2-carboxylic acid (compound A) each formulated as an SC (suspension concentrate) and various herbicidal components alone and in combination.
For formulated compounds, a measured amount was placed in an individual 100 or 200 mL glass vial and was dissolved in a volume of 1.25% (v/v) Agri-Dex® crop oil concentrate to obtain application solutions.
Applications were made by injecting with a pipetter appropriate amounts of the application solutions, individually and sequentially, into the aqueous layer of the paddy. Control plants were treated in the same manner with the solvent blank. Applications were made so that all treated plant material received the same concentrations of acetone and crop oil concentrate.
The treated plants and control plants were placed in a greenhouse as described above and water was added as needed to maintain a paddy flood. After approximately 3 weeks the condition of the test plants as compared with that of the untreated plants was determined visually and scored on a scale of 0 to 100 percent where 0 corresponds to no injury or growth inhibition and 100 corresponds to complete kill.
Colby's equation was used to determine the herbicidal effects expected from the mixtures (Colby, S. R. 1967. Calculation of the synergistic and antagonistic response of herbicide combinations. Weeds 15:20-22.).
The following equation was used to calculate the expected activity of mixtures containing two active ingredients, A and B: Expected=A+B−(A×B/100)

CYPDI = assay: Example V post-emergence field trials in direct-seeded rice; type: in vivo, Cyperus difformis; conditions: foliar, field trial Greece
Method: Multiple field trials were conducted under commercial grower field conditions in Tolima, Colombia; Thessaloniki, Greece; Bianze and Copiano, Italy; and Humphrey, Ark., USA. Trials sites were located in commercially grown fields of direct-seeded rice (Oryza sativa) using standard herbicide small plot research methodology. Plots varied from 2 to 3 meter (m)×5 to 8 m (width×length) with 4 replicates per treatment. The rice crop was grown using normal cultural practices for fertilization, seeding, watering, flooding and maintenance to ensure good growth of the crop and the weeds.
All treatments in the field trials were applied using a backpack compressed air/gas sprayer with flat fan nozzles (80° or 110°) calibrated to apply 187 to 300 L/ha spray volume at approximately 200-400 kPa nozzle pressure. Commercially available products of cyhalofop-butyl (Clincher 180EC, Clincher 200EC, and Clincher SF (285 gr ai/L EC)) were mixed in water at appropriate formulated product rates to achieve the desired rates based on a unit area of application (hectare) to achieve the desired rates as shown. Treatments were rate at 19 to 58 days after application (DAA) as compared to the untreated control plants. Visual weed control was scored on a scale of 0 to 100 percent where 0 corresponds to no injury and 100 corresponds to complete kill. […]

COc1c(Cl)ccc(-c2nc(C(=O)O)c(Cl)c(N)c2F)c1F [Compound A Acid, 4-amino-3-chloro-6-(4-chloro-2-fluoro-3-methoxyphenyl)-5-fluoropyridine-2-carboxylic acid]
Visual Weed Control (%) - 21 DAA FIMMI Obs (FIMMI; 8.75 gae/ha): 20% | Visual Weed Control (%) - 21 DAA FIMMI Obs (FIMMI; 35 gae/ha): 85%

COc1c(Cl)ccc(-c2nc(C(=O)OCc3ccccc3)c(Cl)c(N)c2F)c1F [Compound A Benzyl Ester, benzyl ester of 4-amino-3-chloro-5-fluoro-6-(4-chloro-2-fluoro-3-methoxy-phenyl)pyridine-2-carboxylic acid]
Visual Weed Control (%) - 55-58 DAA CYPDI Obs (CYPDI; 24 gae/ha): 81%

CCCCOC(=O)[C@@H](C)Oc1ccc(Oc2ccc(C#N)cc2F)cc1 [Cyhalofop-butyl, butyl(2R)-2-[4-(4-cyano-2-fluorophenoxy)phenoxy]propanoate, reference compound]
Visual Weed Control (%) - 55-58 DAA CYPDI Obs (CYPDI; 300 gai/ha): 0%

C[C@@H](Oc1ccc(Oc2nc3ccc(Cl)cc3o2)cc1)C(=O)N(C)c1ccccc1F [Metamifop, (2R)-2-[4-[(6-chloro-2-benzoxazolyl)oxy]phenoxy]-N-(2-fluorophenyl)-N-methylpropanamide]
Visual Weed Control (%) - 21 DAA FIMMI Obs (FIMMI; 75 gai/ha): 0% | Visual Weed Control (%) - 21 DAA FIMMI Obs (FIMMI; 150 gai/ha): 0%
